The results in this text go back to ChEMBL document CHEMBL5042558, “Selective Macrocyclic Inhibitors of DYRK1A/B” (ACS Med Chem Lett, 2022).

The term IC50 denotes the concentration at which inhibition is half-maximal. By Cmax is commonly meant the peak of the concentration-time curve. What is called AUC(0-inf) is the area under the concentration-time curve extrapolated to infinity. In general, bioavailability refers to the share of a dose that reaches the circulation, judged against a reference dose that is usually intravenous. What is called half-life is the time in which the quantity being followed falls by half. A word on the CL/F: it is clearance divided by bioavailability, as obtained after extravascular dosing. As usually defined, the clearance is the volume of plasma or blood freed of the substance per unit of time.

Molecules are shown by their SMILES.

Series [1] has as its system CAL-27. As to the kind of experiment: Induction of apoptosis in human CAL-27 cells assessed as decrease in AKT phosphorylation at S473 residue at 10 uM after 24 hrs by Immunoblot analysis relative to control. Type of series: functional. Details: scale not given: the % may be the effect or the level left. For orientation: Immunoblotting shows a protein as a band on a membrane.

Series [2] addresses Mitogen-activated protein kinase kinase kinase 19 (Homo sapiens, UniProt Q56UN5). The experiment in a line: Inhibition of YSK4 (unknown origin) at 1 uM by kinome scan method.
Series [3] concerns CAL-27. As to the kind of experiment: Induction of apoptosis in human CAL-27 cells assessed as decrease in AKT phosphorylation at S473 residue at 0.5 uM after 24 hrs by Immunoblot analysis relative to control. It is filed as functional. Details: scale not given: the % may be the effect or the level left.
The target of series [4] is Mitogen-activated protein kinase 9 (Homo sapiens, UniProt P45984). The experiment in a line: Inhibition of JNK2 (unknown origin) in human CAL-27 cells measured after 6 hrs by select screen kinase assay. It is filed as cell-based.
A further series addresses Misshapen-like kinase 1 (Homo sapiens, UniProt Q8N4C8). The experiment in a line: Inhibition of MINK1 (unknown origin) at 1 uM by kinome scan method.
Series [5] has as its target T1, Focal adhesion kinase 1 (Homo sapiens, UniProt Q05397). The experiment in a line: Inhibition of FAK (unknown origin) at 1 uM by kinome scan method.
Series [6] has as its target Ribosomal protein S6 kinase alpha-1 (Homo sapiens, UniProt Q15418). As to the kind of experiment: Inhibition of RSK1 (unknown origin) in human CAL-27 cells measured after 6 hrs by select screen kinase assay. Type of series: cell-based.
Series [7] concerns the target Dual specificity mitogen-activated protein kinase kinase 4 (Homo sapiens, UniProt P45985). As to the kind of experiment: Inhibition of MEK4 (unknown origin) at 1 uM by kinome scan method.
The nature of series [8]: Cmax in C57BL/6 mouse at 10 mg/kg, po measured upto 8 hrs by LC-MS/MS analysis. Type of series: ADME, organism-based. Details: route oral, dose 10 mg/kg, time <=8. Particulars: in vivo.
The test system of series [9] is CAL-27. The experiment in a line: Induction of apoptosis in human CAL-27 cells assessed as BCL-xL level at 1 uM after 24 hrs by Immunoblot analysis relative to control. It is filed as functional.
Series [10] is described as follows: AUC (0-infinity) in C57BL/6 mouse at 2 mg/kg, iv measured upto 8 hrs by LC-MS/MS analysis. Type of series: ADME, organism-based. Details: route intravenous, dose 2 mg/kg, time <=8. Particulars: in vivo.
The target of series [11] is Serine/threonine-protein kinase Sgk1 (Homo sapiens, UniProt O00141). As to the kind of experiment: Inhibition of SGK (unknown origin) at 1 uM by kinome scan method.
Series [12] has as its system CAL-27. The experiment in a line: Induction of apoptosis in human CAL-27 cells assessed as decrease in FOXO3A phosphorylation at serine 253 residue at 0.5 uM after 24 hrs by Immunoblot analysis relative to control. It is filed as functional. Details: scale not given: the % may be the effect or the level left.
Series [13] relates to CAL-27. As to the kind of experiment: Induction of apoptosis in human CAL-27 cells assessed as decrease in AKT phosphorylation at S473 residue at 1 uM after 24 hrs by Immunoblot analysis relative to control. It is filed as functional. Also noted: scale not given: the % may be the effect or the level left.
The test system of series [14] is CAL-27. The experiment in a line: Induction of apoptosis in human CAL-27 cells assessed as BCL-xL level at 10 uM after 24 hrs by Immunoblot analysis relative to control. It is filed as functional.
Series [15] deals with CAL-27. The experiment in a line: Induction of apoptosis in human CAL-27 cells assessed as decrease in FOXO3A phosphorylation at serine 253 residue at 5 uM after 24 hrs by Immunoblot analysis relative to control. Details: scale not given: the % may be the effect or the level left. It is filed as functional.
Series [16] has as its system CAL-27. As to the kind of experiment: Antiproliferative activity against human CAL-27 cells assessed as reduction in cell viability at 10 uM measured after 72 hrs by Celltiter-Glo luminescent assay. Type of series: functional. (In general: Cellular ATP, detected with luciferase, serves as a proxy for viable cell number.)
Series [17] concerns the target T2, Ribosomal protein S6 kinase alpha-3 (Homo sapiens, UniProt P51812). As to the kind of experiment: Inhibition of RSK2 (unknown origin) in human CAL-27 cells measured after 6 hrs by select screen kinase assay. It is filed as cell-based.
Series [18] can be described thus: Oral bioavailability in C57BL/6 mouse at 10 mg/kg measured upto 8 hrs by LC-MS/MS analysis. Type of series: ADME, organism-based. Particulars: C57BL/6, mouse, in vivo.
The target in series [19] is Mitogen-activated protein kinase 10 (Homo sapiens, UniProt P53779). The experiment in a line: Inhibition of JNK3 (unknown origin) in human CAL-27 cells measured after 6 hrs by select screen kinase assay. It is filed as cell-based.
Series [20] concerns CAL-27. The experiment in a line: Induction of apoptosis in human CAL-27 cells assessed as increase in cleaved-PARP level at 1 uM after 24 hrs by Immunoblot analysis relative to control. It is filed as functional.
The nature of series [21]: Half life in C57BL/6 mouse at 2 mg/kg, iv measured upto 8 hrs by LC-MS/MS analysis. It is filed as ADME, organism-based. Particulars: in vivo.
Series [22] addresses T1, Focal adhesion kinase 1. The experiment in a line: Inhibition of FAK (unknown origin) in human CAL-27 cells measured after 6 hrs by select screen kinase assay. It is filed as cell-based.
Series [23] deals with CAL-27. As to the kind of experiment: Induction of apoptosis in human CAL-27 cells assessed as decrease in FOXO3A phosphorylation at serine 253 residue at 1 uM after 24 hrs by Immunoblot analysis relative to control. Type of series: functional. Also noted: scale not given: the % may be the effect or the level left.
Series [24] concerns the target Ribosomal protein S6 kinase alpha-6 (Homo sapiens, UniProt Q9UK32). The experiment in a line: Inhibition of RSK4 (unknown origin) at 1 uM by kinome scan method.
For series [25], the target named is Mitogen-activated protein kinase 8 (Homo sapiens, UniProt P45983). As to the kind of experiment: Inhibition of JNK1 (unknown origin) in human CAL-27 cells measured after 6 hrs by select screen kinase assay. Type of series: cell-based.
Series [26] has as its target Ribosomal protein S6 kinase alpha-2 (Homo sapiens, UniProt Q15349). The experiment in a line: Inhibition of RSK3 (unknown origin) in human CAL-27 cells measured after 6 hrs by select screen kinase assay. Type of series: cell-based.
Series [27] in a line: Clearance in C57BL/6 mouse at 10 mg/kg, po measured upto 8 hrs by LC-MS/MS analysis. It is filed as ADME, organism-based. Particulars: in vivo.
Another series relates to FaDu. As to the kind of experiment: Antiproliferative activity against human FaDu cells assessed as reduction in cell viability at 10 uM measured after 72 hrs by Celltiter-Glo luminescent assay. Type of series: functional.
In series [28] the test system is CAL-27. The experiment in a line: Induction of apoptosis in human CAL-27 cells assessed as PARP level at 1 uM after 24 hrs by Immunoblot analysis relative to control. Type of series: functional.
A short description of series [29]: Half life in C57BL/6 mouse at 10 mg/kg, po measured upto 8 hrs by LC-MS/MS analysis. It is filed as ADME, organism-based. As to conditions: in vivo.
Series [30] can be described thus: AUC (0-infinity) in C57BL/6 mouse at 10 mg/kg, po measured upto 8 hrs by LC-MS/MS analysis. It is filed as ADME, organism-based. Details: route oral, dose 10 mg/kg, time <=8. As to conditions: C57BL/6, mouse, in vivo.
Series [31] has as its system CAL-27. The experiment in a line: Induction of apoptosis in human CAL-27 cells assessed as decrease in FOXO3A phosphorylation at serine 253 residue at 10 uM after 24 hrs by Immunoblot analysis relative to control. It is filed as functional. Details: scale not given: the % may be the effect or the level left.
Series [32] concerns CAL-27. The experiment in a line: Induction of apoptosis in human CAL-27 cells assessed as increase in cleaved-PARP level at 10 uM after 24 hrs by Immunoblot analysis relative to control. Type of series: functional.
The target in series [33] is T2, Ribosomal protein S6 kinase alpha-3. As to the kind of experiment: Inhibition of RSK2 (unknown origin) at 1 uM by kinome scan method.
Series [34] in a line: Cmax in C57BL/6 mouse at 2 mg/kg, iv measured upto 8 hrs by LC-MS/MS analysis. Type of series: ADME, organism-based. Also noted: route intravenous, dose 2 mg/kg, time <=8. As to conditions: in vivo.
In another series the test system is HEK-293T. As to the kind of experiment: Antiproliferative activity against human HEK293T cells assessed as reduction in cell viability at 10 uM measured after 72 hrs by Celltiter-Glo luminescent assay. Type of series: toxicity, cell-based.
The subject of series [35] is CAL-27. The experiment in a line: Induction of apoptosis in human CAL-27 cells assessed as PARP level at 10 uM after 24 hrs by Immunoblot analysis relative to control. Type of series: functional.
Series [36] in a line: Clearance in C57BL/6 mouse at 2 mg/kg, iv measured upto 8 hrs by LC-MS/MS analysis. It is filed as ADME, organism-based. Particulars: in vivo.
Series [37] has as its system CAL-27. As to the kind of experiment: Induction of apoptosis in human CAL-27 cells assessed as decrease in AKT phosphorylation at S473 residue at 5 uM after 24 hrs by Immunoblot analysis relative to control. Also noted: scale not given: the % may be the effect or the level left. Type of series: functional.
In series [38] the target is T3, Dual specificity tyrosine-phosphorylation-regulated kinase 1B (Homo sapiens, UniProt Q9Y463). The experiment in a line: Inhibition of DYRK1B (unknown origin) at 1 uM by kinomescan method.
The target of series [39] is T3, Dual specificity tyrosine-phosphorylation-regulated kinase 1B. As to the kind of experiment: Inhibition of DYRK1B (unknown origin) measured after 6 hrs in presence of ATP by Z'-LYTE assay.

T1 sequence (Q05397 whole entry): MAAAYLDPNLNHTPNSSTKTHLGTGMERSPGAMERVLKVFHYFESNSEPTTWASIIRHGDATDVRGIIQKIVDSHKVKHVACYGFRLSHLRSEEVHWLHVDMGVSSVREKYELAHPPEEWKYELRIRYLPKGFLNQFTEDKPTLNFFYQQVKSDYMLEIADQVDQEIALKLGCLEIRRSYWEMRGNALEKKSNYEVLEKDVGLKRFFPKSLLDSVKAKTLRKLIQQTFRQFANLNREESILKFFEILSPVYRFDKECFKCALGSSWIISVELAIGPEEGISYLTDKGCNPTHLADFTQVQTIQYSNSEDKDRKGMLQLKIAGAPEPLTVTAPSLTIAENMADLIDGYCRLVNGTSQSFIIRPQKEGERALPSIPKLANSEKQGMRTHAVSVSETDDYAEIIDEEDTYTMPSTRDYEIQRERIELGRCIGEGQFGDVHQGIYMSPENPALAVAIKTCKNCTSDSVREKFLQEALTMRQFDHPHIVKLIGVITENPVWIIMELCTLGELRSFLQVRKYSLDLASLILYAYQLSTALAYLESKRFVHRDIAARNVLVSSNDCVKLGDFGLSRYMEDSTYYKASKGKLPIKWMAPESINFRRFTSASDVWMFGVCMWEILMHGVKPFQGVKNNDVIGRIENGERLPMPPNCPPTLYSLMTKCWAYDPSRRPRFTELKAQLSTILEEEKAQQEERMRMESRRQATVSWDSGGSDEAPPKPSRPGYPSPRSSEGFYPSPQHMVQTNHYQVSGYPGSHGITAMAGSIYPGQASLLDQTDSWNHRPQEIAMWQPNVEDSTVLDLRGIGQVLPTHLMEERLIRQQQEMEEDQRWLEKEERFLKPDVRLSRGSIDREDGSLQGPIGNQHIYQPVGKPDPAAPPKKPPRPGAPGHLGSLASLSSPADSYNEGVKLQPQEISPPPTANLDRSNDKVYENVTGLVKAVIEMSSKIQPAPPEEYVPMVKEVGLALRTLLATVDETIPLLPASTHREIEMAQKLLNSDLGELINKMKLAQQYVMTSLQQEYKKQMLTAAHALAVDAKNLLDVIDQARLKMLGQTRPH
T3 sequence (Q9Y463 whole entry): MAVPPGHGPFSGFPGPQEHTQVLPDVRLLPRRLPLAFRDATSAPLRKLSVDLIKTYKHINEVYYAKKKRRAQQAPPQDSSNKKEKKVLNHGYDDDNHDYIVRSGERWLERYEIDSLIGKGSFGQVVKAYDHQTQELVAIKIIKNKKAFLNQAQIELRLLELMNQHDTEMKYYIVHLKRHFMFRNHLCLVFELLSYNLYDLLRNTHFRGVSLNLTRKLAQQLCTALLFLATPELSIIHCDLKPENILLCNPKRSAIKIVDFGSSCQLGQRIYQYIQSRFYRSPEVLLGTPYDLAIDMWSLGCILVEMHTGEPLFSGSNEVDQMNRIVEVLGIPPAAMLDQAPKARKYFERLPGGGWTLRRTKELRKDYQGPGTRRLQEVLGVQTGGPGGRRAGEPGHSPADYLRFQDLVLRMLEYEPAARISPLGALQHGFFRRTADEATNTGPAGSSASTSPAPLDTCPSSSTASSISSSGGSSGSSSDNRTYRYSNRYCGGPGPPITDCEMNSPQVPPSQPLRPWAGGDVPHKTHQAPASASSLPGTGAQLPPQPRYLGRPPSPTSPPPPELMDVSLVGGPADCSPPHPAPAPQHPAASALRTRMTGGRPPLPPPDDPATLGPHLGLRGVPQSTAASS
T2 sequence (P51812 whole entry): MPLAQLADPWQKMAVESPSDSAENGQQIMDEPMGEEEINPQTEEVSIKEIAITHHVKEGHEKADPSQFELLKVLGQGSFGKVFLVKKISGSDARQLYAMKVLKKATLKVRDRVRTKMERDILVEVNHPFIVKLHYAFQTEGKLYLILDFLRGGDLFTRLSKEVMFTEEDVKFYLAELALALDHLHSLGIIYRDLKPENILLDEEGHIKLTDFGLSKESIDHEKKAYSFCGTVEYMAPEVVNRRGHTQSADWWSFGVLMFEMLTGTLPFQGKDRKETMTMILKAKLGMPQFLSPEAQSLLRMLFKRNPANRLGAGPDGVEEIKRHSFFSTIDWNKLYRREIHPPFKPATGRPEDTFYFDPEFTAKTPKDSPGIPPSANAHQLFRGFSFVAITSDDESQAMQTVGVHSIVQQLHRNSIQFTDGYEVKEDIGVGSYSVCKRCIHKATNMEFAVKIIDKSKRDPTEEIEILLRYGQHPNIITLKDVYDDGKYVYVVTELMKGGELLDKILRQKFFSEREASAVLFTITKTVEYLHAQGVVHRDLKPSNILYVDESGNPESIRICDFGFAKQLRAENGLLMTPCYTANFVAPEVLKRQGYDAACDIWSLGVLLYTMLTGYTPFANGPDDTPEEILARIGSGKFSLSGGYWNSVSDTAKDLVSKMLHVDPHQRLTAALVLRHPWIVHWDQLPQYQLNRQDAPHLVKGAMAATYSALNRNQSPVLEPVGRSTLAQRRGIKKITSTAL
Chain of Ribosomal protein S6 kinase alpha-6 (Q9UK32 whole entry): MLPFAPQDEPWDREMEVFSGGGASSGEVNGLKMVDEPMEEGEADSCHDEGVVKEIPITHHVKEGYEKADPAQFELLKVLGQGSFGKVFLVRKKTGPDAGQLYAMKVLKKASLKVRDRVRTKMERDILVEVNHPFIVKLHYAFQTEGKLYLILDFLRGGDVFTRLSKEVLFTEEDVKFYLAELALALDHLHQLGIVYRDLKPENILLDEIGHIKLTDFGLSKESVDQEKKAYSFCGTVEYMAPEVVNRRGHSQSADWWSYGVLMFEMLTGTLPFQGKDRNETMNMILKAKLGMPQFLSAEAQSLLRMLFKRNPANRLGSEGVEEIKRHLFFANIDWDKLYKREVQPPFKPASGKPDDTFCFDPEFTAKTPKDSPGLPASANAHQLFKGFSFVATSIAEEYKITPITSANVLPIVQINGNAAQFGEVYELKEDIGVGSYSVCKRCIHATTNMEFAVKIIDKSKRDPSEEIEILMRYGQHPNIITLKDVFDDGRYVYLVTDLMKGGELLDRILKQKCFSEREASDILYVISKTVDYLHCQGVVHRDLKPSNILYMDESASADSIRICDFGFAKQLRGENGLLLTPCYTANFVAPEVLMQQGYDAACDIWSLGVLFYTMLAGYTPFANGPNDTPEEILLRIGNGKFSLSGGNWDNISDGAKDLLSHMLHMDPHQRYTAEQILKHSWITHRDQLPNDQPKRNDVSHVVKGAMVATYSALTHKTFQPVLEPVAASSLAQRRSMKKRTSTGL
Chain of Mitogen-activated protein kinase 8 (P45983 whole entry): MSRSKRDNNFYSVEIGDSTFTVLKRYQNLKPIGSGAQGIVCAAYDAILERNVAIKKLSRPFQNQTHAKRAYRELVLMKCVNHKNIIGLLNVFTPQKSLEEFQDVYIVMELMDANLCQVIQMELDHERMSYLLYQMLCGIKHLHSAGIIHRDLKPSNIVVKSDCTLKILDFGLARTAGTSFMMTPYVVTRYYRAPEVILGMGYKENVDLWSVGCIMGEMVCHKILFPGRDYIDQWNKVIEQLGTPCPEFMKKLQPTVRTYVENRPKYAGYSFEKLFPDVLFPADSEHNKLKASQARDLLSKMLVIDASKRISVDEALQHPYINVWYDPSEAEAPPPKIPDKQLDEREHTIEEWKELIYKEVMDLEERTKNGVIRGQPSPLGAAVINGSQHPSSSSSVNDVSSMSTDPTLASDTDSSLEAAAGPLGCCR
Chain of Misshapen-like kinase 1 (Q8N4C8 whole entry): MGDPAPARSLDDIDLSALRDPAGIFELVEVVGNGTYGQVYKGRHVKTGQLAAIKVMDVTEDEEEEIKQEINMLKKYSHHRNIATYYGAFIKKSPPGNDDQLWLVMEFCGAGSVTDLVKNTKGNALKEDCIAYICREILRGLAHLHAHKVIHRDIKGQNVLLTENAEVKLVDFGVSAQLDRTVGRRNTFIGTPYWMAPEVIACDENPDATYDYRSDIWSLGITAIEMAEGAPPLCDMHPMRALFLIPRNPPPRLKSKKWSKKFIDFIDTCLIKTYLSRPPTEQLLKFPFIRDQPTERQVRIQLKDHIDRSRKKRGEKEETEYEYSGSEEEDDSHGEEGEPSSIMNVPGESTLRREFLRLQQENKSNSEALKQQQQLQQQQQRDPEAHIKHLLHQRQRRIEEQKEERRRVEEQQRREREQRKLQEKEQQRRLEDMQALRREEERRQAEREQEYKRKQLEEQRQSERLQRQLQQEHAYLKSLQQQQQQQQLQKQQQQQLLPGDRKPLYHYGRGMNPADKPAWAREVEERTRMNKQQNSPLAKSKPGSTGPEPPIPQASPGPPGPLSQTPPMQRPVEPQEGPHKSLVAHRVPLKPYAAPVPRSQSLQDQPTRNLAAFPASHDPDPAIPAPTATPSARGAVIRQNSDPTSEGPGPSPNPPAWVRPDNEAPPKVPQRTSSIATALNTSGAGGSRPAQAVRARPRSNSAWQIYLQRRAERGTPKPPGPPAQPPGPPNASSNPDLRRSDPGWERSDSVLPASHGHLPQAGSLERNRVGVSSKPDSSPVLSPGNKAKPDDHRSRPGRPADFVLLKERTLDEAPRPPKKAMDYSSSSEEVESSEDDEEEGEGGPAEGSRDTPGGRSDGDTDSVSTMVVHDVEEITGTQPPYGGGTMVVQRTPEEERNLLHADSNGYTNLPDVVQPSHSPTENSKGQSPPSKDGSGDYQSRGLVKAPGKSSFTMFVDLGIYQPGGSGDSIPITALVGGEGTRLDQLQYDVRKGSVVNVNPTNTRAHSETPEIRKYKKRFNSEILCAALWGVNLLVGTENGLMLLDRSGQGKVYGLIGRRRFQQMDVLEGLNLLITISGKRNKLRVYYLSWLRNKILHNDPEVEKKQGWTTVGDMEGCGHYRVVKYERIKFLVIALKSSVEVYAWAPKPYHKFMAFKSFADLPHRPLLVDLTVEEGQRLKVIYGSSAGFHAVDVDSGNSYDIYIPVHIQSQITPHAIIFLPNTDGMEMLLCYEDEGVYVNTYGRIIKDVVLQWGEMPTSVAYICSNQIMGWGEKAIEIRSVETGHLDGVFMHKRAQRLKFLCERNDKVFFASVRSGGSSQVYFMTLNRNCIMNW

Turning to `CN1Cc2nn(C)c(C#N)c2-c2cnc3[nH]c(F)c(c3c2)-c2cn(nc2C(F)(F)F)CCCC1=O`, the Activity was found to be 63% in the series on CAL-27 [1]; 81% with CAL-27 [3]; 61% in the series on CAL-27 [9]; 56% in the series on CAL-27 [12]; 85% with CAL-27 [13]; 58% in the series with CAL-27 [14]. The Activity is 10% in the series on CAL-27 [15]; 45% in the series with CAL-27 [16]; 128% with CAL-27 [20]; 49% with CAL-27 [23]; 40% in the series with FaDu; 104% in the series on CAL-27 [28]. In addition, the Activity with CAL-27 [31] is 38%; in the series on CAL-27 [32], 540%; in the series with HEK-293T, “Non-Toxic”; in the series with CAL-27 [35], 93%; in the series with CAL-27 [37], 74%. Besides, the concentration for half-maximal inhibition (IC50) in [2] came out at 1620 nM; in series [4], 1100 nM; on Misshapen-like kinase 1, 115 nM; against Focal adhesion kinase 1 [5] it was 210 nM; in [6], 82 nM; in series [7] it was 132 nM. Further, the half-maximal inhibitory concentration (IC50) is 690 nM in [11]; 80 nM in series [17]; greater than 10000 nM in series [19]; 90 nM against Focal adhesion kinase 1 [22]; 37 nM in [24]; 1130 nM in [25]. In addition, the half-inhibitory concentration (IC50) came out at 61 nM in series [26] and 182 nM in series [33]. The highest concentration (Cmax) came to 6.4 µM in [8] and 34.1 µM in series [34]. Besides, the AUC(0-inf) in [10] came to 8950 ng·h/mL; in series [30], 5770 ng·h/mL. The compound further showed a bioavailability in [18] of 12.3%. In addition, the half-life is 1.2 h in series [21] and 2.4 h in series [29]. In series [27], this compound showed a CL/F of 29.3 mL/min/kg. In [36], this compound displayed a clearance of 5.9 mL/min/kg.

On to `CN1Cc2nn(C)cc2-c2cnc3[nH]cc(c3c2)-c2cnn(c2)CCCC1=O`, for which the values for the IC50 in series [38] and in series [39] were 19 nM and 70 nM, respectively.
